These results are taken from patent US7666898B2, “Multivalent indole compounds and use thereof as phospholipase-A2 inhibitors” (Ilypsa, Inc., priority 2005, dated 2010).

In data set [1] the target is T1, human non-pancreatic PLA2 (hnp PLA2) (Homo sapiens, UniProt P14555).
T1 sequence (P14555 21-144): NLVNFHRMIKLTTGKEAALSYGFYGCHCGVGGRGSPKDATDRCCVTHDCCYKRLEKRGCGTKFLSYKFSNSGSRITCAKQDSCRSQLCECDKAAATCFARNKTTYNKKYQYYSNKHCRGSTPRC
Conditions: reported literature data; cited from earlier work.

Data set [2] concerns the target human pancreatic secreted PLA2 (hps PLA2) (Homo sapiens, UniProt P04054). The settings on record: reported literature data; cited from earlier work.
Data set [3] addresses porcine pancreatic secreted PLA2 (pps PLA2) (Sus scrofa, UniProt P00592). Conditions: reported literature data; cited from earlier work.
Data set [4] deals with T2, mouse group 1B PLA2 (mps PLA2) (Mus musculus, UniProt Q9Z0Y2).
T2 construct: made in house; host or cells: E. coli
The data set can be described thus: Fluorimetric PLA2 inhibition assay, mouse (Example 8). It is filed as biochemical.
Description: (§1) In this example, a fluorimetric assay procedure was used to evaluate the indole and indole-related compounds of the invention as inhibitors of group 1B phospholipase A2 (PLA2) from human, mouse and porcine.
(§2) In general, this assay used a phosphatidylmethanol substrate with a pyrene fluorophore on the terminal end of the sn-2 fatty acyl chain. Without being bound by theory, close proximity of the pyrenes from neighboring phospholipids in a phospholipid vesicle caused the spectral properties to change relative to that of monomeric pyrene. Bovine serum albumin was present in the aqueous phase and captured the pyrene fatty acid when it is liberated from the glycerol backbone owing to the PLA2-catalyzed reaction. […] The effect of a given inhibitor and inhibitor concentration on human, mouse and porcine phospholipase was determined.
(§3) Recombinant human and mouse group 1B PLA2 were cloned and expressed in E. coli as insoluble inclusion bodies. The inclusion bodies were isolated and purified by sonicating cell pellet in lysis buffer (50 mM Tris-HCl pH 7.0, 250 mM NaCl, 0.5% Triton 100), centrifugation at 12,000×g, and washing three times in washing buffer (20 mM Tris-HCl pH 7.0, 250 mM NaCl, 0.5% Triton 100). Then the inclusion bodies were dissolved in dissolving buffer (50 mM Tris-HCl pH 7.0, 250 mM NaCl, 6 M Guanidine-HCl, 1 mM DTT) and dialyzed four times against 10 volumes of refolding buffer (20 mM Tris-HCl pH 7.0, 250 mM NaCl, 0.5M Guanidine-HCl, 5% (w/w) Glycerol, 2 mM reduced glutathione and 0.4 mM oxidized glutathione) at 4° C. The correctly refolded proteins were concentrated using Amicon Stirred cell under nitrogen pressure (<70 psi) and dialyzed against 10 volumes of 50 mM Tris-HCl pH 7.0, 250 mM NaCl and 5% (w/w) glycerol. Human and mouse group 1B PLA2 were further purified by High S ion exchange and gel filtration columns.
(§4) The following reagents were prepared: • 1. PPyrPM stock solution (1 mg/ml) in toluene:isopropanol (1:1) • 2. […]
(§5) The following procedure was performed to evaluate the inhibitory potency of the evaluated compounds. • 1. […]

Data set [5] deals with Porcine group 1 B phospholipase A2 (pps PLA2) (Sus scrofa, UniProt P00592). The data set can be described thus: Fluorimetric PLA2 inhibition assay, porcine (Example 8).
Description: as §1, §2
The following reagents and equipments were obtained from commercial vendors: • 1. Porcine group 1 B phospholipase A2 • 2. 1-hexadecanoyl-2-(1-pyrenedecanoyl)-sn-glycero-3-phosphomethanol (PPyrPM) • 3. Bovine serum albumin (BSA, fatty acid free) • 4. 2-Amino-2-(hydroxymethyl)-1,3-propanediol, hydrochloride (Tris-HCl) • 5. […]
as §5
Evaluated compounds were tested in duplicate and their values were averaged to plot the inhibition curve and calculate the IC50. […]
Data set [6] has as its target T3, human group 1B PLA2 (hps PLA2) (Homo sapiens, UniProt P04054).
T3 construct: made in house; host or cells: E. coli
Briefly: Fluorimetric PLA2 inhibition assay, human (Example 8). It is filed as biochemical.
Description: as §1, §2, §3, §4, §5

For another data set, the target named is human PLA2 IB enzyme (Homo sapiens, UniProt P04054). The settings on record: pyrene substrate release from vesicles (Singer, Ghomashchi et al. 2002); read-out: IC50 versus the human PLA2 IB enzyme; cited from earlier work.
Data set [7] can be described thus: Pharmokinetic study of ILY-4001 (Example 6C). The class given is in vivo, mice. The settings on record: 30 mg/kg oral. Here is the method:
Bioavailability was calculated as a ratio of AUC-oral/AUC-intravenous (IV). To determine this ratio, a first set of subject animals were given a measured intravenous (IV) dose of ILY-4001, followed by a determination of ILY-4001 levels in the blood at various time points after administration (e.g., 5 minutes through 24 hours). Another second set of animals was similarly dosed using oral administration, with blood levels of ILY-4001 determined at various time points after administration (e.g., 30 minutes through 24 hours). The level of ILY-4001 in systemic circulation were determined by generally accepted methods (for example as described in Evans, G., A Handbook of Bioanalysis and Drug Metabolism. Boca Raton, CRC Press (2004)). Specifically, […]/mass spectrometry/mass spectrometry (LC/MS/MS) analytical methods were used to quantitate plasma concentrations of ILY-4001 after oral and intravenous administration. Pharmacokinetic parameters that were measured include Cmax, AUC, tmax, t1/2, and F (bioavailability).
In this procedure, ILY-4001 was dosed at 3 mg/kg IV and 30 mg/kg oral. […] This indicated about a 72% level of non-absorption of ILY-4001 from the GI tract into systemic circulation.

The subject of data set [8] is Caco-2 cells. Briefly: In-vitro Caco-2 permeability study (Example 6B). Conditions: Caco-2 monolayers, apical to basolateral.
Protocol: (§6) Briefly, the human colon adenocarcinoma cell line, Caco-2, was used to model intestinal drug absorption.
(§7) In order to determine the compound permeability, Caco-2 cells (ATCC) were seeded into 24-well transwells (Costar) at a density of 6×10^4 cells/cm^2. Monolayers were grown and differentiated in MEM (Mediatech) supplemented with 20% FBS, 100 U/ml penicillin, and 100 ug/ml streptomycin at 37° C., 95% humidity, 95% air, and 5% CO2. The culture medium was refreshed every 48 hours. After 21 days, the cells were washed in transport buffer made up of HBSS with HEPES and the monolayer integrity was evaluated by measuring the trans-epithelial electrical resistance (TEER) of each well. […]
(§8) 150 ul samples were collected for LC/MS analysis from the basolateral well at 15 min, 30 min, 45 min, 1 hr, 3 hr, and 6 hr time points; replacing the volume with pre-warmed transport buffer after each sampling. The apparent permeabilities in cm/s were calculated based on the equation: Papp=(dQ/dt)×(1/C0)×(1/A) where dQ/dt is the permeability rate corrected for the sampling volumes over time, C0 is the initial concentration, and A is the surface area of the monolayer (0.32 cm^2). At the end of the experiment, TEER measurements were retaken and wells with readings below 350 ohm-cm^2 indicated diminished monolayer integrity such that the data from these wells were not valid for analysis.
The target of another data set is mouse PLA2 IB enzyme (Mus musculus, UniProt Q9Z0Y2). Conditions: pyrene substrate release from vesicles (Singer, Ghomashchi et al. 2002); read-out: IC50 versus the mouse PLA2 IB enzyme; cited from earlier work.
A short description of a further data set: Stability at low pH. It is filed as physicochemical.
Data set [9] deals with C57BL/6 wild-type mice on high fat/high sucrose diabetogenic diet. The data set can be described thus: In-vivo evaluation in mice on high fat/high sucrose diabetogenic diet (Example 5). Set-up: species or system mouse. Conditions: for fasting glucose levels: low dose 25 mg/kg/day. Here is the method:
ILY-4001 (FIG. 2) was evaluated as a PLA2 IB inhibitor in a set of experiments using wild-type mice and genetically deficient PLA2 (−/−) mice (also referred to herein as PLA2 knock-out (KO) mice). In these experiments, wild-type and PLA2 (−/−) mice were maintained on a high fat/high sucrose diet, details of which are described below.
Briefly, four groups were set up, each having six mice. Three of the groups included six wild-type PLA2 (+/+) mice in each group (eighteen mice total), and one of the groups included six genetically deficient PLA2 (−/−) mice. One of the wild-type groups was used as a wild-type control group, and was not treated with ILY-4001. The other two wild-type groups were treated with ILY-4001—one group at a lower dose (indicated as “L” in Table 1) of 25 mg/kg/day, and the other at a higher dose (indicated as “H” in Table 1) of 90 mg/kg/day. The group comprising the PLA2 (−/−) mice was used as a positive control group.
The experimental protocol used in this study was as follows. The four groups of mice, including wild type and isogenic PLA2 (−/−) C57BL/J mice were acclimated for three days on a low fat/low carbohydrate diet. After the three day acclimation phase, the animals were fasted overnight and serum samples taken to establish baseline plasma cholesterol, triglyceride, and glucose levels, along with baseline body weight. The mice in each of the treatment groups were then fed a high fat/high sucrose diabetogenic diet (Research Diets D12331). 1000 g of the high fat/high sucrose D12331 diet was composed of casein (228 g), DL-methionine (2 g), maltodextrin 10 (170 g), sucrose (175 g), soybean oil (25 g), hydrogenated coconut oil (333.5 g), mineral mix S10001 (40 g), sodium bicarbonate (10.5 g), potassium citrate (4 g), vitamin mix V10001 (10 g), and choline bitartrate (2 g). This diet was supplemented with ILY-4001 treatments such that the average daily dose of the compound ingested by a 25 g mouse was: 0 mg/kg/day (wild-type control group and PLA2 (−/−) control group); 25 mg/kg/day (low-dose wild-type treatment group), or 90 mg/kg/day (high-dose wild-type treatment group). The animals were maintained on the high fat/high sucrose diet, with the designated ILY-4001 supplementation, for a period of ten weeks.
Body weight measurements were taken for all animals in all treatment and control groups at the beginning of the treatment period and at 4 weeks and 10 weeks after initiation of the study. (See Example 5A). Blood draws were also taken at the beginning of the treatment period (baseline) and at 4 weeks and 10 weeks after initiation of the study, in order to determine fasting glucose (See Example 5B). Cholesterol and triglyceride levels were determined from blood draws taken at the beginning of the treatment (baseline) and at ten weeks. (See Example 5C).

Data set [10] is described as follows: Bioavailability study of Compound 5-24 (Example 9). The class given is in vivo, male CD-1 Mus Musculus mice. The settings on record: oral ˜30 mg/kg vs IV ˜3 mg/kg, mice. Here is the method: Bioavailability was determined for Compound 5-24 (ILY-V-24) as follows. Generally, the bioavailability was calculated by comparing a timecourse of the concentration of the test compound in the serum of mice after an intra-venous (IV) dosing, versus the timecourse of the concertration following an oral dosing of the test compound. The IV dose was ˜3 mg/kg, the oral dose was ˜30 mg/kg.
Oral Formulation. The oral formulation was prepared as follows. To sterile flask, 90 ml of sterile Milli-Q water was added. 9 ml of PEG-400 was added (final concentration of 9%). 50 ul of Tween-80 was added (final concentration of 0.05%). 0.9 g of CMC was weighed and added (final concentration of 0.9% w/v). […]
Study Design. […] On study day 0, all the animals were weighed, dosages were calculated and the animals were dosed by oral route (PO) or (IV) as outlined below in Table 7. […]
Calculations. Bioavailabilty was calculated as follows. Individual doses were calculated based on an average of body weights taken on the day of dosing. Serum concentrations of test compound, as well as the actual concentration of dosing solutions, were measured using 2-dimensional Mass Spectrophotometry after Liquid Chromatography (LC MS/MS). […]

Data set [11] relates to Caco-2 cells.
Protocol: as §6, §7, §8
The mark [12] stands for this setting: low and high doses (25 and 90 mg/kg/day), 10 weeks.

Like-named read-outs stand apart in the source and are kept apart here.

Sequence of Porcine group 1 B phospholipase A2 (pps PLA2) (P00592 23-146): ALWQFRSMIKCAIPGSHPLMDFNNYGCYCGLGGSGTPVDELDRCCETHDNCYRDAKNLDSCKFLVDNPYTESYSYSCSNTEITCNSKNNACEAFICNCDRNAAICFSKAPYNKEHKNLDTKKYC
T2 sequence (Q9Z0Y2 23-146): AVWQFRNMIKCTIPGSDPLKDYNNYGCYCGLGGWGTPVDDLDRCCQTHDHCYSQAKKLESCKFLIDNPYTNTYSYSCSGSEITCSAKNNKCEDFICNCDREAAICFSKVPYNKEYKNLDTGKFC
T3 sequence (P04054 23-148): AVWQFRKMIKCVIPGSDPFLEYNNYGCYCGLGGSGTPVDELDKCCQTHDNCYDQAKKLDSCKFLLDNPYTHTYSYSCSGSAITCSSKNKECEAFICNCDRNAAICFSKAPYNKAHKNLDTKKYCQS
Sequence of human pancreatic secreted PLA2 (hps PLA2) (P04054 23-148): as above
Sequence of porcine pancreatic secreted PLA2 (pps PLA2) (P00592 23-146): as the sequence (P00592 23-146) above
Sequence of mouse PLA2 IB enzyme (Q9Z0Y2 23-146): as the sequence (Q9Z0Y2 23-146) above
Sequence of human PLA2 IB enzyme (P04054 23-148): as the sequence (P04054 23-148) above

For the compound `Cc1c(CC(N)=O)c2cc(OCc3ccc(C(=O)O)cc3)ccc2n1Cc1ccccc1`, the concentration for half-maximal inhibition (IC50) in [1] is 0.147 ± 0.009 µM; in data set [2] it was 22.5 µM; in [3] it was 7.5 µM.

As for `CCc1c(C(=O)C(N)=O)c2c(OCC(=O)O)cccc2n1Cc1ccccc1-c1ccccc1`, the IC50 was 0.004 ± 0.001 µM in [1] and 0.062 µM in data set [2].

For the compound “2-(3-Aminooxalyl-1-{12-[3-aminooxalyl-4-(1-carboxy-2-methyl-propoxy)-2-methyl-indol-1-yl]-dodecyl}-2-methyl-1H-indol-4-yloxy)-3-methyl-butyric acid [ILY-v-44]”, the half-maximal inhibitory concentration (IC50) in data set [4] (PPyrPM vesicles, 37° C., read-out: ILYPSA IC50 (μM) mps PLA2) was found to be 0.48 µM; in [5] (read-out: ILYPSA IC50 (μM) pps PLA2, PPyrPM vesicles, 37° C.) it was 0.05 µM; in data set [6] (PPyrPM vesicles, 37° C., read-out: ILYPSA IC50 (μM) hps PLA2), 0.28 µM.

In the case of `Cc1c(C(=O)C(N)=O)c2c(OCC(=O)O)cccc2n1Cc1ccccc1-c1ccccc1` [ILY-4001, 2-(3-(2-amino-2-oxoacetyl)-1-(biphenyl-2-ylmethyl)-2-methyl-1H-indol-4-yloxy)acetic acid], the IC50 on human PLA2 IB enzyme is around 200 nM; on mouse PLA2 IB enzyme it was around 150 nM. Further, the “level of non-absorption from the GI tract into systemic circulation” value in [7] is reported as around 72%. Moreover, in the data set on Caco-2 cells [8], the “apparent permeability (cm/s)” value is listed as “around 1.66×10^−7 cm/s”. In the data set “Stability at low pH”, the “stability at low pH” value is given as “stable at low pH”. Further, in data set [9] (25 mg/kg/d and 90 mg/kg/d in diet, week 4 and week 10, vs wild-type control group), the body weight gain entry was “significantly reduced body weight gains”. Besides, the “plasma levels of cholesterol” value in data set [9] (setting [12]) was “substantially reduced”. The “plasma levels of triglycerides” value in [9] (setting [12]) is “substantially reduced”. For the same compound, the fasting glucose levels result in data set [9] (week four) is recorded as “moderately beneficial effect”; in data set [9] (week ten), “a beneficial effect was not observed”.

In the case of `Cc1c(C(=O)C(N)=O)c2c(OCC(=O)O)cccc2n1CCCCCCCCSCCCCCCCCSCCCCCCCCn1c(C)c(C(=O)C(N)=O)c2c(OCC(=O)O)cccc21` [ILY-v-24, 2,2′-(1,1′-(8,8′-(Octane-1,8-diylbis(sulfanediyl))bis(octane-8,1-diyl))bis(3-(2-amino-2-oxoacetyl)-2-methyl-1H-indole-4,1-diyl))bis(oxy)diacetic acid], in data set [10], the bioavailability is 4-8%.

Regarding “(3-Aminooxalyl-1-benzyl-2-methyl-1H-indol-4-yloxy)-phenyl-acetic acid [ILY-IV-32]”, the “ILYPSA % inhibition at 15 μM mps PLA2” value in data set [4] (15 μM compound) came out at 47.49%. In addition, in [5] (15 μM compound), the “ILYPSA % inhibition at 15 μM pps PLA2” value was determined as 38.5%. Moreover, the “ILYPSA % inhibition at 15 μM hps PLA2” value in [6] (15 μM compound) is listed as 41.73%.

Lucifer Yellow: the “apparent permeability (cm/s)” value in the data set on Caco-2 cells [11] was “around 2.82×10^−7+/−0.37×10^−7 cm/s”.

For orientation: IC50 means the point on the concentration scale where inhibition reaches its midpoint.
